Source: publication PMC11203957, “Naphthoquinone-Quinolone Hybrids with Antitumor Effects on Breast Cancer Cell Lines—From the Synthesis to 3D-Cell Culture Effects” (International Journal of Molecular Sciences, 2024)
Each block holds one compound with its values, some of them ahead of it.

Experiments:
[1] = test system: HCT-15 cocultured with stromal cells CCd-18Co; design: method as in PMID 23632919; details: coculture with stromal cells; cited from earlier work
[2] = test system: MKN-74 cocultured with stromal cells Hs738; design: method as in PMID 23632919; details: coculture with stromal cells; cited from earlier work
[3] = test system: human gastric cancer cells (MKN-74); design: method as in PMID 23651559, PMID 25457491; details: cited from earlier work
[4] = test system: colorectal cancer cells (HCT-15); design: method as in PMID 23651559, PMID 25457491; details: cited from earlier work
[5] = test system: MCF-7 human breast cancer cells; design: method as in PMID 33039723; details: cited from earlier work
[6] = test system: MDA-MB-231; design: method as in PMID 30129412; details: cited from earlier work
[7] = test system: MCF-7; design: method as in PMID 30129412; details: cited from earlier work
[8] = test system: 4T1; design: method as in PMID 30129412; details: cited from earlier work
[9] = test system: non-cancerous cell line MCF10A; design: method as in PMID 30129412; details: cited from earlier work
[10] = test system: MDA-MB-231; assay: MTT cell viability assay, MDA-MB-231 (2D culture); type: cell-based, human; details: low concentrations (<25 µM); effect plateaus above 25 µM
Procedure: (§1) Our first approach to assessing the anticancer activity of the novel 1,4-naphthoquinone/4-quinolone conjugates 11a–f on breast cancer cells involved comparing their effects in the MTT cell viability assay to determine the half-maximal inhibitory concentration (IC50) in the 2D cell culture model. Doxorubicin and 1,4-naphthoquinone were used as controls. Concentration-response curves were obtained with the conjugates at concentrations ranging from 0 to 200 µM. […] This observation aligns with the structural characteristics of this derivative, which features the largest alkyl substituent at position R^1.
(§2) The IC50 values were calculated using GraphPad Prism v. 8.0.1, and the selectivity index was estimated as the ratio between the IC50 value of MCF10A/IC50 value of MDA-MB-231 or MCF-7 [33], for each compound.

[11] = test system: MCF-7; assay: MTT cell viability assay, MCF-7 (2D culture); type: cell-based, human; details: low concentrations (<25 µM); effect plateaus above 25 µM
Procedure: as §1, §2

[12] = Solubility in the culture medium (inferred from MTT curves); type: physicochemical; details: concentrations >25 µM
Procedure: as §1

Compound: CSC(=NCn1c(C/C=C(\C)CCC=C(C)C)cc(=O)c2ccccc21)SC [Compound 4, intervenolin]
IC50 [1]: 500 nM
IC50 [2]: 400 nM
IC50 [3]: 7000 nM
IC50 [4]: 3700 nM

Compound: Cc1ccc(NC(=O)c2ccc(NC3=C(Cl)C(=O)c4ccccc4C3=O)cc2)nc1 [Compound 7]
cytotoxicity against MCF-7 [5]: high cytotoxicity

Compound: CCOC(=O)c1cn(CC)c2ccc(-n3cc(COC4=C(CC=C(C)C)C(=O)c5ccccc5C4=O)nn3)cc2c1=O [Compound 10]
activity against MDA-MB-231 [6]: demonstrated activity
activity against MCF-7 [7]: demonstrated activity
activity against 4T1 [8]: demonstrated activity
cytotoxicity against MCF10A [9]: no significant cytotoxicity

melting point: > 300 °C
solubility in the medium [12]: low solubility
Compound: O=C1C=C(c2ccc3c(c2)c(=O)c(C(=O)O)cn3Cc2ccccc2)C(=O)c2ccccc21 [Compound 11e, 1-benzyl-6-(1,4-dioxo-1,4-dihydronaphthalen-2-yl)-4-oxo-1,4-dihydroquinoline-3-carboxylic acid]
anticancer activity in MTT concentration-response curve, MDA-MB-231 [10]: comparable to the most active derivatives at low concentrations
anticancer activity in MTT concentration-response curve, MCF-7 [11]: comparable to the most active derivatives at low concentrations
